{
  "source": "patent US6432972B1",
  "about": "“Treating allergic and inflammatory conditions” (Schering Corporation, priority 2000, dated 2002)",
  "key": {"[1]": {"test_system": "patients with SAR", "experiment": "pooled randomized, parallel-group, double-blind, placebo-controlled studies; nasal congestion/stuffiness severity score in patients with SAR", "format": "in vivo, human", "settings": "for nasal congestion/stuffiness, 14-day average change in symptom severity score from baseline: baseline score 2.4", "description": "The severity (0=none, 1=mild, 2=moderate, 3=severe) of congestion/stuffiness was assessed by patients for the study duration. The 14-day average change in symptom severity score from baseline was assessed. The mean symptom severity score for nasal congestion/stuffiness was 2.4 in each treatment group at baseline, indicating patients had moderate-to-severe nasal congestion before receiving treatment."}, "[2]": {"experiment": "stability of free base versus acid addition salt", "format": "physicochemical", "text": "Such pharmaceutical compositions may be formulated by combining desloratadine or an equivalent amount of a pharmaceutically acceptable salt thereof with a suitable, inert, pharmaceutically acceptable carrier or diluent that may be either solid or liquid. Desloratadine may be converted into the pharmaceutically acceptable acid addition salts by admixing it with an equivalent amount of a pharmaceutically acceptable acid. Typically suitable pharmaceutically acceptable acids include the mineral acids, e.g., HNO3, H2SO4, H3PO4, HCl, HBr, organic acids, including, but not limited to, acetic, trifluoroacetic, propionic, lactic, maleic, succinic, tartaric, glucuronic and citric acids as well as alkyl or arylsulfonic acids, such as p-toluenesulfonic acid, 2-naphthalenesulfonic acid, or methanesulfonic acid. The preferred pharmaceutically acceptable salts are trifluoroacetate, tosylate, mesylate, and chloride."}, "[3]": {"test_system": "seasonal allergic rhinitis patients", "experiment": "double-blinded, randomized clinical trials in seasonal allergic rhinitis patients", "format": "in vivo, human", "description": "Efficacy endpoints in all the studies were Total Symptom Score, Total Nasal Symptom Score, Total Non-nasal Symptom Score, and Health Quality of Life (HQOL) analysis in efficacy trials. […] An important efficacy endpoint analyzed in the desloratadine studies is the AM NOW total symptom score. This parameter measures the total symptom relief by the patient after 24 hours before taking the next day dose."}},
  "data": [
    {"smiles": "Clc1ccc2c(c1)CCc1cccnc1C2=C1CCNCC1", "note": "[Desloratadine]", "values": [
      {"measurement": "nasal congestion/stuffiness, 14-day average change in symptom severity score from baseline", "setting": "[1]; 5 mg PO once a day for 14 days, P=0.02 vs placebo", "value": "significantly decreased"},
      {"measurement": "total symptom severity", "setting": "[1]; 5 mg or 7.5 mg PO once a day for 14 days, vs placebo", "value": "significantly decreased"},
      {"measurement": "nasal congestion/stuffiness, 14-day average change in symptom severity score from baseline", "setting": "[1]; 7.5 mg PO once a day for 14 days, P=0.01 vs placebo", "value": "significantly decreased"},
      {"measurement": "stability, free base compared with acid addition salt", "setting": "[2]", "value": "more stable as the free base than as an acid addition salt"},
      {"measurement": "total symptom scores (sum of individual scores for rhinorrhea, sneezing, congestion/stuffiness, nasal itching, itchy/burning eyes, tearing, ocular redness, itchy ears/palate)", "setting": "[3]; 5 mg once daily, adult and adolescent seasonal allergic rhinitis patients", "value": "significantly reduced"},
      {"measurement": "AM NOW total symptom score (symptom relief after 24 hours, before next day dose)", "setting": "[3]; 5 mg to 20 mg dosage range, p<0.05", "value": "Statistically significant (p<0.05) reductions were maintained for the full 24 hour dosing interval"},
      {"measurement": "reducing nasal symptoms vs placebo", "setting": "[3]; 5 mg, p<0.01 vs placebo", "value": "significantly (p<0.01) more effective than placebo"}
    ]}
  ]
}
